Measured values from US20240044899A1, “BIOMARKERS FOR FIMEPINOSTAT THERAPY” (Curis, Inc, priority 2021, published 2024).
Values joined by “and” are separate entries in the source; they are usually repeats but may differ in a detail not shown here. Identical values can stand only once. “Also recorded” adds a separate entry of the source.

Legend:
[1] = tested on: DLBCL xenografts with MYC alterations; settings: cited from earlier work
[2] = tested on: R/R DLBCL/HGBL patients with MYC-altered disease; test: Phase 1 and phase 2 clinical studies of fimepinostat, response and survival outcomes; assay type: in vivo, human
From the text: Included subjects were enrolled in either the dose escalation and expansion portion of the phase 1 study evaluating fimepinsotat with or without rituximab (part 1) or the phase 2 study with fimepinostat monotherapy.
For the phase 1/part 1 study, key inclusion criteria were ≥18 years of age with histopathologically confirmed diagnosis of DLBCL or transformed follicular lymphoma (tFL) refractory to or relapsed after at least 2 prior regimens, Eastern Cooperative Oncology Group (ECOG) performance status 0-2, measurable disease on baseline radiographic assessment and adequate hematologic and organ function. Key exclusion criteria were receipt of systemic anti-cancer therapy within 3 weeks of study entry, ongoing treatment with chronic immunosuppressive therapy, active CNS lymphoma and gastrointestinal conditions which may interfere with absorption of fimepinostat. For the phase 2 study, key inclusion criteria were ≥18 years of age with histopathologically confirmed diagnosis of DLBCL, HGBL or tFL refractory to or relapsed after 2-4 prior lines of therapy for the treatment of de novo DLBCL and ineligible for (or failed) autologous or allogeneic stem cell transplant (SCT), Eastern Cooperative Oncology Group (ECOG) performance status 0-1, measurable disease on baseline radiographic assessment, confirmed availability of viable tissue (defined as most recent available archival tumor tissue, or fresh tumor samples) for central laboratory FISH and IHC testing prior to study dosing and adequate hematologic and organ function. Key exclusion criteria were receipt of systemic anti-cancer therapy within 2 weeks of study entry or experimental therapy within 5 terminal half-lives (t1/2) or 4 weeks prior to enrollment, known primary mediastinal, ocular, epidural, testicular or breast lymphoma and current or planned glucocorticoid therapy with the exception of doses ≤10 mg/day prednisolone or equivalent.
Patients received fimepinostat capsules (Pharmatek Laboratories Inc., San Diego, CA, USA) orally, within 30 minutes of a meal, in 21-day cycles until disease progression was documented or other discontinuation criteria were met. In the phase 2 protocol, change in dose and/or schedule intensity of fimepinostat were allowed as per protocol due to toxicity. Safety and tolerability were assessed by the incidence and severity of adverse events as determined by NCI Common Terminology Criteria for Adverse Events (CTCAE v4.03) in both protocols.
The intention to-treat-population included al patients from both protocols who received at least one dose of fimepinostat. The evaluable population includes all patients who received at least one dose of study drug (phase 1) or one full cycle of treatment (phase 2) and completed at least one post-baseline disease assessment. Patients were re-staged according to the Revised Response Criteria for Malignant Lymphoma.^18
MYC-altered disease was defined as one or more of the following results from central testing of tumor samples: expression of MYC protein in ≥40% of lymphoma cells by immunohistochemical staining (IHC), MYC rearrangement by fluorescence in situ hybridization (FISH) or >2 copies of MYC in by FISH. IHC staining of MYC (rabbit clone Y69) and BCL2 (mouse clone 124) for patients enrolled in the phase 1 study (note MYC FISH was not centrally performed in this study) were performed by Mosaic Laboratories, LLC (Lake Forest, CA, USA). IHC staining of MYC (rabbit clone Y69) and BCL2 (mouse clone 124) as well as FISH with MYC (8q24) and BCL6 (3q27) break apart probes and BCL2 (t(14;18)) fusion probe for patients enrolled in the phase 2 study were performed by NeoGenomics Laboratories, Inc (Fort Myers, FL, USA), with positive cutoff values for MYC rearrangement (>10%), MYC copy number gain (>20%), BCL2 rearrangement (≥0.5%) and BCL6 rearrangement (>10%) as defined per laboratory standard. […]

[3] = tested on: DLBCL patients with MYC-altered disease; settings: 11 evaluable DLBCL patients with MYC-altered disease, phase 1, cited from earlier work
[4] = evaluable population (n = 43), 60 mg by mouth 5 days on/2 days off
[5] = evaluable population (n = 43), estimated
[6] = individual patients achieving partial or complete response (Subject ID 1-9)

For `COc1ccc(-c2nc(N3CCOCC3)c3sc(CN(C)c4ncc(C(=O)NO)cn4)cc3n2)cn1` [fimepinostat, Fimepinostat], the “Preclinical activity compared to HDAC or PI3K inhibitor monotherapy” value [1] is given as “superior preclinical activity”, the “Responding patients who remained on treatment for over 2 years without disease progression, number” value ([2]; 9 responding patients) is given as 4 and the Overall response rate ([2]; evaluable population (n = 43)) is given as 21%. For the same compound, the “Overall response, number of patients” value ([2]; evaluable population (n = 43)) was 9, the “Partial response, number of patients” value ([2]; evaluable population (n = 43)) was 3 and the “Progressive disease, number of patients” value ([2]; evaluable population (n = 43)) was 26. The “Complete response, % of patients” value [2, 4] was 14%, the “Complete response, number of patients” value [2, 4] was 6 and the “Alive at 6 months” value [2, 5] was 54% (95% CI 37-68%). The “Progression free at 6 months” value [2, 5] was 18% (95% CI 8-31%), the “DOR (duration of response)” value [2, 6] was 30.0 months and 24.4 months and 23.8 months and 1.0/1.0 months and 4.2 months and 4.1 months (2×) and 2.8 months and 40.5 months and the “Status at end of study” value [2, 6] was “Alive; also recorded: Deceased”. The “TTR (time to response)” value [2, 6] was 2.7 months and 2.8 months (3×) and 1.0/1.0 months and 1.3 months (2×) and 4.0 months and 1.2 months, the “Median duration of response” value ([2]; responding patients of evaluable population) was “Not yet reached (95% CI 1.4 months-” and the Overall response rate ([3]; central or local testing) was 64%. The “Estimated duration of response” value [3] was 13.6 month.
